Tested on: HPRT1
Experiment: Pooled positive selection hgRNA screen for resistance to 6-thioguanine
Format: cell-based, human
Details: 6-TG treated cells
Method: Lentiviral-based positive selection pooled hgRNA screens were performed, and the human HPRT1 and TK1 genes were targeted using guide pairs that either target within exonic regions, which are expected to result in gene knockout, or intronic loci flanking constitutive exons in these genes, which are expected to result in exon deletion (FIG. 1D). All of the exon-flanking hgRNAs in the library were designed to introduce double-strand DNA breaks at intronic sites that are at least 100 bps distal from splice sites flanking the target exons.
At T18 15 million cells were collected for genomic DNA extraction, and hgRNA expression cassettes were amplified and subjected to high-throughput sequencing as described below.

## Nc1nc2nc[nH]c2c(=S)[nH]1 [6-TG, 6-thioguanine]
  library constructs undetectable when cells were treated with 6-TG: 95.8%

Source: patent publication US20220348910A1, “METHODS AND COMPOSITIONS FOR MULTIPLEX GENE EDITING” (THE GOVERNING COUNCIL OF THE UNIVERSITY OF TORONTO, priority 2019, published 2022)
